Experimental data taken from patent publication US20060089395A1, “Nf-kb activation inhibitors” (priority 2002, published 2006).
Entries after “also recorded” stand apart in the source; their conditions may differ. Read-outs that look alike come from different tables or passages of the source.

Columns and labels:
[1] = tested on: IL-6; experiment: Inhibition of IL-6 production by TNFα stimulation in synovial fibroblasts derived from a rheumatoid patient (ELISA); type: cell-based, human; details: for IC50: synovial fibroblasts, 10 ng/ml TNFα, 3 days, read-out: Inhibition against Mediator Release IC50(nM) IL-6; for inhibition of the production of IL-6 (in words): rheumatic patient-derived synovial fibroblasts under TNFα stimulation
Method: (§1) Synovial fibroblasts (Human Synoviocyte (RA-Positive), Toyobo, T4040-05) were cultured for 3 days in a medium containing 10 ng/ml of TNFα and a test compound. IL-6 and IL-8 in the supernatant were measured by the ELISA method, and PGE2 (prostaglandin E2) was measured by the EIA method.

[2] = tested on: NF-κ B; experiment: Inhibitory activity of NF-κ B activation, luciferase reporter assay in HepG2 under TNF-α stimulation; type: cell-based, human
In short: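 HepG2 cells transiently transfected with a luciferase reporter driven by five tandem NF-κB binding sites, then incubated 6–24 h. Stimulated with TNF-α (40 ng/ml) with or without test compound for 4 h. Intracellular luciferase read by chemiluminescence; inhibition expressed relative to activity without compound.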

[3] = tested on: Vascular smooth muscle cells of normal coronary artery (Cryo CASMC); experiment: Inhibitory test against proliferation of vascular smooth muscle cells of normal coronary artery under proliferation stimulation (MTS assay); type: cell-based; details: FGF and EGF stimulation, 72 hours
Method: Vascular smooth muscle cells of normal coronary artery (Cryo CASMC) were cultured for 2 hours in the presence or absence of a test substance in DMEM medium containing 0.5% of FBS and insulin (5 u g/ml). Then, FGF and EGF were added for proliferation stimulation. The mixture was cultured for 72 hours and proliferation of the cells were measured by the MTS assay. The results aree shown in the following

[4] = tested on: PGE2; experiment: Inhibition of PGE2 production by TNFα stimulation in synovial fibroblasts derived from a rheumatoid patient (EIA); type: cell-based, human; details: for IC50: synovial fibroblasts, 10 ng/ml TNFα, 3 days, read-out: Inhibition against Mediator Release IC50(nM) PGE2; for inhibition of the production of PGE2 (in words): rheumatic patient-derived synovial fibroblasts under TNFα stimulation
Method: as §1

[5] = tested on: IL-8; experiment: Inhibition of IL-8 production by TNFα stimulation in synovial fibroblasts derived from a rheumatoid patient (ELISA); type: cell-based, human; details: for IC50: synovial fibroblasts, 10 ng/ml TNFα, 3 days, read-out: Inhibition against Mediator Release IC50(nM) IL-8; for inhibition of the production of IL-8 (in words): rheumatic patient-derived synovial fibroblasts under TNFα stimulation
Method: as §1

[6] = tested on: type II collagen induced arthritis; experiment: Inhibitory test against type II collagen induced arthritis in mice; type: in vivo, Balb/c mice; details: 10 mg/kg intraperitoneally once in two days; day 44; score of the control = 100%
Method: Balb/c mice were immunized with heterologous type II collagen and Freund's complete adjuvant by subcutaneous or intraperitoneal injection. At 21 days after the treatment, these mice were immunized again with heterologous type II collagen and Freund's incomplete adjuvant by subcutaneous or intraperitoneal injection to develop arthritis.
A test substance suspended in an appropriate diluent or the diluent alone (negative control) was administered intraperitoneally once in two days from the day of the first immunization, and as for arthritis developed after the second immunization, clinical symptoms of each ankle joint of all foots were recorded day after day as numerous scores. When the score of the control measured on day 44 after administration of 10 mg/kg of the medicament of the present invention was expresses as 100%, rates of exacerbation (%) of the clinical symptoms of arthritis were 37.5 (Compound No. 4), 76.5 (Compound No. 90), 56.2 (Compound No. 11), 64.0 (Compound No. 88), and 0.0 (Compound No. 83).

[7] = 1 μg/mL, HepG2, TNF-α (40 ng/ml), 4 hours
[8] = 10 μg/mL, HepG2, TNF-α (40 ng/ml), 4 hours
[9] = Homo sapiens, 1 μg/mL, HepG2, TNF-α (40 ng/ml), 4 hours, read-out: Inhibitory Ratio of NF-κ B Activation(%) Drug Concentration 1 μg/mL
[10] = Homo sapiens, 10 μg/mL, HepG2, TNF-α (40 ng/ml), 4 hours, read-out: Inhibitory Ratio of NF-κ B Activation(%) Drug Concentration 10 μg/mL

Row | SMILES | IC50 [1] [nM] | Inhibitory Ratio of NF-κ B Activation(%) Drug Concentration 1 μg/mL [2, 7] [%] | Inhibitory Ratio of NF-κ B Activation(%) Drug Concentration 10 μg/mL [2, 8] [%] | Inhibitory Ratio of Proliferation(%) Compound Concentration 250 nM [3] [%] | Inhibitory Ratio of Proliferation(%) Compound Concentration 500 nM [3] [%] | IC50 [4] [nM] | IC50 [5] [nM] | inhibition at 1 µg/mL [2, 9] [%] | inhibition at 10 µg/mL [2, 10] [%] | other results
1 | O=C(Nc1cc(C(F)(F)F)cc(C(F)(F)F)c1)c1ccc(Cl)cc1O [Compound No. 51] | 874 | 90.5 | 98.2 | 26.2 | 86.6 | 863 | 832 | – | – | –
2 | O=C(Nc1cc(C(F)(F)F)ccc1C(F)(F)F)c1cc(Br)ccc1O [Compound No. 83] | < 10 | 95.7 | 98.3 | 27.1 | 87.9 | < 10 | 62 | – | – | inhibition of the production of IL-6 (in words) [1]: potently inhibited; also recorded: strongly inhibited; inhibition of the production of PGE2 (in words) [4]: potently inhibited; also recorded: strongly inhibited; inhibition of the production of IL-8 (in words) [5]: potently inhibited; also recorded: strongly inhibited; rates of exacerbation (%) of the clinical symptoms of arthritis [6]: 0.0%
3 | O=C(Nc1cc(C(F)(F)F)ccc1Cl)c1cc(Br)ccc1O [Compound No. 90] | 24 | 88.9 | 94.1 | 89.5 | 95.2 | 38 | 373 | – | – | inhibition of the production of IL-6 (in words) [1]: potently inhibited; also recorded: strongly inhibited; inhibition of the production of PGE2 (in words) [4]: potently inhibited; also recorded: strongly inhibited; inhibition of the production of IL-8 (in words) [5]: potently inhibited; also recorded: strongly inhibited; rates of exacerbation (%) of the clinical symptoms of arthritis [6]: 76.5%
4 | O=C(Nc1cc(C(F)(F)F)ccc1Cl)c1cc(Cl)ccc1O [Compound No. 88, 5-chloro-N-[2-chloro-5-(trifluoromethyl)phenyl]-2-hydroxybenzamide] | – | – | – | – | – | – | – | 94.8 | 97.1 | IC50 ([1]; Homo sapiens, Fibroblast, 72 h): 88 nM; inhibition of the production of IL-6 (in words) [1]: potently inhibited; also recorded: strongly inhibited; IC50 ([4]; Homo sapiens, Fibroblast, 72 h): 33 nM; inhibition of the production of PGE2 (in words) [4]: potently inhibited; also recorded: strongly inhibited; inhibition of the production of IL-8 (in words) [5]: potently inhibited; also recorded: strongly inhibited; rates of exacerbation (%) of the clinical symptoms of arthritis [6]: 64.0%
5 | COc1cc(NC(=O)c2cc(Br)ccc2O)cc(C(F)(F)F)c1 [Compound No. 93] | 130 | 84.5 | 97.2 | 12.1 | 87.2 | 47 | 753 | – | – | –
6 | CC(C)(C)c1ccc(O)c(C(=O)Nc2cc(C(F)(F)F)cc(C(F)(F)F)c2)c1 [compound 11, N-[3,5-Bis(trifluoromethyl)phenyl]-5-[(1,1-dimethyl)ethyl]-2-hydroxybenzamide] | – | – | – | 86.7 | 91.4 | – | – | 92.9 | 98.3 | IC50 ([1]; Homo sapiens, Fibroblast, 72 h): 247 nM; IC50 ([4]; Homo sapiens, Fibroblast, 72 h): 389 nM; IC50 ([5]; Homo sapiens, Fibroblast, 72 h): 377 nM; rates of exacerbation (%) of the clinical symptoms of arthritis [6]: 56.2%
7 | CC(C)(C)c1cc(NC(=O)c2cc(Br)ccc2O)cc(C(C)(C)C)c1 [Compound No. 140] | 808 | 70.9 | 82.0 | 4.3 | 86.1 | 21 | – | – | – | –
8 | CC(=O)Oc1ccccc1C(=O)Nc1cc(Cl)cc(Cl)c1 [Compound No. 120, 2-acetoxy-N-(3,5-dichlorophenyl)benzamide] | – | – | – | – | – | – | – | 88.6 | 97.5 | melting point: 218 to 219 °C
9 | O=C(Nc1cc(C(F)(F)F)cc(C(F)(F)F)c1)c1cc(Br)ccc1O [compound 6] | 352 | 94.9 | 98.6 | 88.0 | 94.8 | 358 | 351 | – | – | –
10 | O=C(Nc1cc(C(F)(F)F)ccc1C(F)(F)F)c1cc(Br)ccc1O [Compound No. 268] | – | 87.1 | 98.4 | 5.6 | 9.8 | – | – | – | – | –
11 | CC(C)(C)c1nc(NC(=O)c2cc(Br)ccc2O)sc1N1CCN(c2ccccc2)CC1 [Compound No. 207, 5-Bromo-N-{4-[(1,1-dimethyl)ethyl]-5-(4-phenylpiperazin-1-yl)thiazol-2-yl}-2-hydroxybenzamide] | – | – | – | 52.5 | 84 | – | – | 92.5 | 95.9 | IC50 ([1]; Homo sapiens, Fibroblast, 72 h): 641 nM; IC50 ([4]; Homo sapiens, Fibroblast, 72 h): 834 nM; IC50 ([5]; Homo sapiens, Fibroblast, 72 h): 832 nM
12 | CC(C)(C)C(=O)c1sc(NC(=O)c2cc(Cl)ccc2O)nc1C(C)(C)C [Compound No.199, 5-Chloro-N-{4-[(1,1-dimethyl)ethyl]-5-[(2,2-dimethyl)propionyl]thiazol-2-yl)-2-hydroxybenzamide] | – | – | – | 35.1 | 84.6 | – | – | 96.4 | 98.4 | IC50 ([1]; Homo sapiens, Fibroblast, 72 h): 309 nM; inhibition at 0.1 µg/mL ([2]; Homo sapiens, HepG2, 4 h, 0.1 μg/ml, comparison table, reporter assay, read-out: Inhibitory Ratio of NF-κB Activation (%) 0.1 μg/ml): 19.6%; inhibition at 1 µg/mL ([2]; Homo sapiens, HepG2, 4 h, 1 μg/ml, comparison table, reporter assay, read-out: Inhibitory Ratio of NF-κB Activation (%) 1 μg/ml): 96.4%; inhibition at 10 µg/mL ([2]; Homo sapiens, HepG2, 4 h, 10 μg/ml, comparison table, reporter assay, read-out: Inhibitory Ratio of NF-κB Activation (%) 10 μg/ml): 98.4%; IC50 ([4]; Homo sapiens, Fibroblast, 72 h): 68 nM; IC50 ([5]; Homo sapiens, Fibroblast, 72 h): 458 nM
13 | O=C(Nc1cc(C(F)(F)F)cc(C(F)(F)F)c1)c1cc(C=Cc2ccccc2)ccc1O [Compound No. 19] | – | 95.5 | 96.9 | 34.0 | 88.6 | – | – | – | – | –
14 | CC(C)(C)C(=O)c1sc(NC(=O)c2cc(Br)ccc2O)nc1C(C)(C)C [Compound No. 201] | 317 | 86.8 | 97.5 | 59.8 | 84.4 | 53 | 599 | – | – | –
15 | O=C(Nc1cc(C(F)(F)F)cc(C(F)(F)F)c1)c1cc(-c2ccccc2)ccc1O [Compound No. 23] | 540 | 91.8 | 96.8 | 31.6 | 89 | 809 | 876 | – | – | –
16 | O=C(Nc1cc(C(F)(F)F)cc(C(F)(F)F)c1)c1cc(C(=O)N2CCC(Cc3ccccc3)CC2)ccc1O [Compound No. 40, N-[3,5-Bis(trifluoromethyl)phenyl]-2-hydroxy-5-(4-benzylpiperidine-1-carbonyl)benzamide] | – | – | – | – | – | – | – | 44.9 | 96 | melting point: 179 to 180 °C
